This passage reports Kd and IC50 results from patent US8946216B2, “Indazole derivatives useful as ERK inhibitors” (Merck Sharp & Dohme Corp., priority 2010, dated 2015).

Molecules are shown by their SMILES.

The target in one assay is ERK protein (Homo sapiens, UniProt P28482). The experiment in a line: TdF (Temperature Dependence Fluorescence, thermal shift) assay for ERK. The format is binding. Particulars: read-out: TdF Kd; 3 μM ERK protein, 15, 50 or 100 μM compound, Sypro Orange; Kd calculated from ΔTm; uncertainty estimated ±50%. An excerpt:
Assays: TdF Assay for ERK
The SAR (Structure Activity Relationship) for ERK ligands covered by this invention was interrogated using the TdF (Temperature Dependence Fluorescence) assay or best known as thermal shift assay. The TdF assay was mainly conducted in the 96-well based CHROMO-4 real time fluorescence plate reader (BioRad). The Sypro Orange (Sigma-Aldrich), environmentally sensitive fluorescence dye, was used to monitor the protein folding-unfolding transition. Protein-ligand binding was gauged by the change (or shift) in the unfolding transition temperature (ΔTm) acquired at protein alone with respect to protein in the presence of ligand of interest.
Compound of interest was first prepared in DMSO stock (typical concentration: 10 mM). Sample of 20 μL was then added into the 96-well PCR plate, where it consisted of 3 μM. […] Final percentage of DMSO resided in the sample was 2%. The sample plate was heated from 30° C. to 90° C. with thermal ramping rate of 1 ° C./min. The fluorescence signals were acquired with excitation and emission wavelengths centered at 490 and 560 nm respectively. The instrument thermal stability was ±0.2° C. The melting temperatures (Tm) for ERK protein under aforementioned conditions occurred at 61.0±0.2° C. and 64.8±0.2° C. respectively.
Theoretical Basis for TdF-based Ligand Binding Affinity Constant
The derivation of TdF-based ligand binding affinity constant (Kd) followed closely those previously formulated by Brandts and Lin [2]. In brief, the binding constant of the ligand at the Tm is expressed as below: […]
where T0 is the midpoint of unfolding for unliganded protein and Tm is the midpoint of unfolding in presence of ligand. [LTm] is free ligand at Tm. The ΔHu and ΔCpu are the enthalpy of unfolding and heat capacity change of unfolding for the protein respectively. Following algorithm derived by Winsor and coworker, the T0, ΔHu and ΔCpu can be determined separately from nonlinear regression fitting the protein alone melting curve:
Where F(T) is the observed fluorescence intensity at any temperature T, Yn and Yu are the predicted fluorescence intensities for fully folded and unfolded protein, respectively; mn and mu are slope correction for changes in Yn and Yu with respect to changes in temperature (analogously replace T0 with Tm in the above equation for liganded protein to yield Tm).
where ΔHL(T) is the van't Hoff enthalpy of ligand binding at temperature T and ΔCpL is the heat capacity upon ligand binding. For simplicity, the ΔCpL and ΔHL(T) were set to zero and −7 kcal/mol respectively. The uncertainty in the calculated ligand binding affinity constant was estimated to be ±50%.

The target in assay [1] is unphosphorylated Mouse ERK2 protein (inactive ERK2) (Mus musculus, UniProt P63085). Nature of the assay: Coupled ERK2 (cERK) assay, coupled MEK1/ERK2 IMAP. It is filed as biochemical. Particulars: 30 min preincubation with inactive ERK2, then activation by human MEK1; 30 μM ATP; fluorescence polarization; read-out: cERK2 IC50. The source says:
• 1. M. W. Pantoliana, E. C. Petrella, J. D. Kwasnoski, V. S. Lobanov, J. Myslik, E. Graf, T. Carver, E. Asel, B. A. Springer, P. Lane, F. R. Salemme, High-density miniaturized thermal shift assays as a general strategy for drug discovery, J. Biomol. Screen 6 (2001) 429-440 • 2. J. F. Brandts, L.-N. Lin, Study of strong to ultratight protein interactions using differential scanning calorimetry, Biochemistry 29 (1990) 6927-6940 • 3. Mayhood, T. W., Windsor, W. T., Ligand binding affinity determined by temperature-dependent circular dichroism: Cyclin-dependent kinase 2 inhibitors, Analytical Biochemistry 345 (2005) 187-197 Coupled ERK2 (cERK) Assay:
14 μl of kinase buffer (10 mM Tris.HCl pH 7.2, 10 mM MgCl2, 0.01% Tween-20, 1 mM DTT) containing 0.4 ng unphosphorylated Mouse ERK2 protein was added to each well of a black 384-well assay plate. […] DMSO concentration during initial incubation is 6.7%. ERK2 activity was determined to be insensitive to DMSO concentrations up to 20%. ERK2 was then activated and it's kinase activity measured by the addition of 10 μl kinase buffer with the following components (final concentration per reaction): 2 ng active (phosphorylated) human MEK1 protein and 4 μM (total) ERK2 IMAP substrate peptides (3.9 μM unlabeled IPTTPITTTYFFFK-CONH2 and 100 nM IPTTPITTTYFFFK(5-carboxyfluorescein)-CONH2) and 30 μM ATP. DMSO concentration during ERK activation was 4%. After one hour, reactions were terminated by addition of 60 μl IMAP detections beads in binding buffer (Molecular Devices). Binding was allowed to equilibrate for 30 minutes before reading the plate on an LJL Analyst Fluorescence Polarization plate reader. […] Active compounds were reconfirmed in an independent assay.

In assay [2] the target is fully phosphorylated, active Mouse ERK2 protein (Mus musculus, UniProt P63085). Nature of the assay: Active ERK2 (aERK) assay, IMAP format. The format is biochemical. To be noted: 30 min preincubation; 1 μM substrate peptide, 30 μM ATP; fluorescence polarization; read-out: aERK2 IC50. As for the experimental part:
Active ERK2 (aERK) Assay:
Activated ERK2 activity was also determined in the IMAP assay format using the procedure outlined above. 1 μl of 25× compound was added to 14 μl of kinase buffer containing 0.25 ng fully phosphorylated, active Mouse ERK2 protein. Following a 30 minute incubation, the reactions were initiated by addition of 10 μl of kinase buffer containing 1 μM ERK2 IMAP substrate peptide (0.9 μM unlabeled IPTTPITTTYFFFK--CONH2 and 100 nM IPTTPITTTYFFFK(5-carboxyfluorescein)-CONH2) and 30 μM ATP. Reactions proceeded for 30 minutes before termination by addition of 60 μl IMAP detection beads in binding buffer. Plates were read as above after 30 minute binding equilibration. Active compounds were reconfirmed in an independent assay.

Chain of ERK protein (P28482 2-360): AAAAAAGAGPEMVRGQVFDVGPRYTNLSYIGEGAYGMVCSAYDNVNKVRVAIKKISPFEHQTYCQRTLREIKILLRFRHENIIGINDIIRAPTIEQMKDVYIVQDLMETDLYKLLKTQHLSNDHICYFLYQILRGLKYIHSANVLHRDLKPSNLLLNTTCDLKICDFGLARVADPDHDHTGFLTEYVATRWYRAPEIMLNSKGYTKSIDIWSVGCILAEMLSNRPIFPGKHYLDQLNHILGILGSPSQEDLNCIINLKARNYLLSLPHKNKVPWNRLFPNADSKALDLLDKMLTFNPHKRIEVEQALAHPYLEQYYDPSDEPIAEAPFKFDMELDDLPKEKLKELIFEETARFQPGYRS
Chain of fully phosphorylated, active Mouse ERK2 protein (P63085 whole entry): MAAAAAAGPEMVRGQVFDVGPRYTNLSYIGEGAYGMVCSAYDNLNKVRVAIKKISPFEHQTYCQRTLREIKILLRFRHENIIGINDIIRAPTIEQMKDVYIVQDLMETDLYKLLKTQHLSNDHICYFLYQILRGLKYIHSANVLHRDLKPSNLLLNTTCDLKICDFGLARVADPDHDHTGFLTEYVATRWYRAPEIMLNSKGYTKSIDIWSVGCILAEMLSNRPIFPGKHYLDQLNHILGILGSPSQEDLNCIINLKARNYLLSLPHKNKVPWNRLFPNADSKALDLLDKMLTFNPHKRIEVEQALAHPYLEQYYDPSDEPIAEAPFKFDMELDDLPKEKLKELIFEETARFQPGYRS
Chain of unphosphorylated Mouse ERK2 protein (inactive ERK2) (P63085 whole entry): as above

One may read the Kd as the free concentration of one partner at which half of the binding sites on the other are occupied at equilibrium, for simple one-to-one binding. The term IC50 denotes the concentration that inhibits the measured activity by half. For `O=C(Nc1ccc2[nH]nc(-c3ccncc3)c2c1)C1CNCCC1c1ccccc1` (stereo not drawn) [Compound 53, 4-PHENYL-N-[3-(4-PYRIDINYL)-1H-INDAZOL-5-YL]-3-PIPERIDINECARBOXAMIDE], on ERK protein, the Kd was 70 nM. Besides, the figures for the IC50 in assay [1] and in assay [2] were 69.5 nM and 102 nM, respectively.

Regarding `O=C(Nc1ccc2[nH]nc(-c3ccncc3)c2c1)[C@@H]1CN(Cc2ccccc2)CCN1` [Compound 57, 4-(PHENYLMETHYL)-N-[3-(4-PYRIDINYL)-1H-INDAZOL-5-YL]-2(S)-PIPERAZINECARBOXAMIDE], on ERK protein, the Kd was 49 nM. The half-maximal inhibitory concentration (IC50) in assay [1] was found to be 61.8 nM; in assay [2], 52 nM.

As to `O=C(Nc1ccc2[nH]nc(-c3ccncc3)c2c1)C1CCCN(C(=O)c2ccccc2)C1` (stereo not drawn) [Compound 56, 1-BENZOYL-N-[3-(4-PYRIDINYL)-1H-INDAZOL-5-YL]-3-PIPERIDINECARBOXAMIDE], the Kd at ERK protein was 420 nM. Further, the results for the IC50 in assay [1] and in assay [2] were 150 nM and 553 nM, respectively.

Regarding `O=C(Nc1ccc2[nH]nc(-c3ccncc3)c2c1)C1CN(Cc2ccccc2F)CCS1` (stereo not drawn) [Compound 10, 4-[(2-FLUOROPHENYL)METHYL]-N-[3-(4-PYRIDINYL)-1H-INDAZOL-5-YL]-2-THIOMORPHOLINECARBOXAMIDE], the dissociation constant Kd at ERK protein is 15 nM. Moreover, the IC50 in assay [1] is 36.4 nM; in assay [2], 77.2 nM.

Consider `O=C(Nc1ccc2[nH]nc(-c3ccncc3)c2c1)C1CN(Cc2c(F)ccc(Cl)c2F)CCO1` (stereo not drawn) [Compound 47, 4-[(3-CHLORO-2,6-DIFLUOROPHENYL)METHYL]-N-[3-(4-PYRIDINYL)-1H-INDAZOL-5-YL]-2-MORPHOLINECARBOXAMIDE], for which, at ERK protein, the Kd is 223 nM. The IC50 in assay [1] came out at 452 nM; in assay [2], 581 nM.

As for `O=C(Nc1ccc2[nH]nc(-c3ccncc3)c2c1)C1CN(Cc2cscn2)CCO1` (stereo not drawn) [Compound 2, N-[3-(4-PYRIDINYL)-1H-INDAZOL-5-YL]-4-(4-THIAZOLYLMETHYL)-2-MORPHOLINECARBOXAMIDE], the Kd on ERK protein was 546 nM. Moreover, the IC50 worked out at 1840 nM in assay [1] and 583 nM in assay [2].

As to `O=C(Nc1ccc2[nH]nc(-c3ccncc3)c2c1)C1(CO)CCCN(Cc2ccccc2)C1` (stereo not drawn) [Compound 66, 3-(HYDROXYMETHYL)-1-(PHENYLMETHYL)-N-[3-(4-PYRIDINYL)-1H-INDAZOL-5-YL]-3-PIPERIDINECARBOXAMIDE], at ERK protein, the dissociation constant Kd is 104 nM. Moreover, the figures for the 50% inhibitory concentration (IC50) in assay [1] and in assay [2] were 1000 nM and 439 nM, respectively.

Consider `O=C(Nc1ccc2[nH]nc(-c3ccncc3)c2c1)C1CN(Cc2ccccc2F)CCS1(=O)=O` (stereo not drawn) [Compound 70, 4-[(2-FLUOROPHENYL)METHYL]-N-[3-(4-PYRIDINYL)-1H-INDAZOL-5-YL]-2-THIOMORPHOLINECARBOXAMIDE, 1,1-DIOXIDE], for which the Kd on ERK protein was 12 nM. Further, the results for the IC50 in assay [1] and in assay [2] were 17.7 nM and 13.9 nM, respectively.

As to `O=C(Nc1ccc2[nH]nc(-c3ccncc3)c2c1)C1CN(Cc2ccccc2F)CC[S+]1[O-]` (stereo not drawn) [Compound 69, 4-[(2-FLUOROPHENYL)METHYL]-N-[3-(4-PYRIDINYL)-1H-INDAZOL-5-YL]-2-THIOMORPHOLINECARBOXAMIDE, 1-OXIDE], the Kd at ERK protein was 4.4 nM. In addition, the IC50 in assay [1] worked out at 8.3 nM; in assay [2], 2.7 nM.

As for `O=C(Nc1ccc2[nH]nc(-c3ccncc3)c2c1)[C@H]1CN(Cc2ccccc2)CCN1` [Compound 59, 4-(PHENYLMETHYL)-N-[3-(4-PYRIDINYL)-1H-INDAZOL-5-YL]-2(R)-PIPERAZINECARBOXAMIDE], the Kd on ERK protein was 21 nM. In addition, the IC50 in assay [1] turned out to be 21.6 nM; in assay [2] it was 16.3 nM.

As for `O=C(Nc1ccc2[nH]nc(-c3ccncc3)c2c1)C1CN(Cc2ccccc2F)CCO1` (stereo not drawn) [Compound 4, 4-[(2-FLUOROPHENYL)METHYL]-N-[3-(4-PYRIDINYL)-1H-INDAZOL-5-YL]-2-MORPHOLINECARBOXAMIDE], the Kd on ERK protein is 20 nM. The values for the IC50 in assay [1] and in assay [2] were 29.3 nM and 20.7 nM, respectively.

For the compound `O=C(Nc1ccc2[nH]nc(-c3ccncc3)c2c1)C1CNCCC1c1ccc(F)cc1` (stereo not drawn) [Compound 52, 4-(4-FLUOROPHENYL)-N-(3-(PYRIDIN-4-YL)-1H-INDAZOL-5-YL)PIPERIDINE-3-CARBOXAMIDE], the Kd on ERK protein is 18 nM. The results for the IC50 in assay [1] and in assay [2] were 60.8 nM and 56.5 nM, respectively.

`O=C(Nc1ccc2[nH]nc(-c3ccncc3)c2c1)C1CN(Cc2cccnc2)CCO1` (stereo not drawn) [Compound 19, N-[3-(4-PYRIDINYL)-1H-INDAZOL-5-YL]-4-(3-PYRIDINYLMETHYL)-2-MORPHOLINECARBOXAMIDE]: the Kd on ERK protein is 517 nM. The IC50 came to 2200 nM in assay [1] and 17000 nM in assay [2].

For the compound `O=C(Nc1ccc2[nH]nc(-c3ccncc3)c2c1)C1CCN(Cc2ccccc2F)C1` (stereo not drawn) [Compound 65, 1-[(2-FLUOROPHENYL)METHYL]-N-[3-(4-PYRIDINYL)-1H-INDAZOL-5-YL]-3-PYRROLIDINECARBOXAMIDE], on ERK protein, the Kd was 29.4 nM. For the same compound, the results for the IC50 in assay [1] and in assay [2] were 77.1 nM and 100 nM, respectively.

With `O=C(Nc1ccc2[nH]nc(-c3ccncc3)c2c1)C1CN(Cc2ccccn2)CCO1` (stereo not drawn) [Compound 5, N-[3-(4-PYRIDINYL)-1H-INDAZOL-5-YL]-4-(2-PYRIDINYLMETHYL)-2-MORPHOLINECARBOXAMIDE], the Kd at ERK protein is 647 nM. Further, the figures for the IC50 in assay [1] and in assay [2] were 2440 nM and 1070 nM, respectively.

Turning to `CSc1ccc(CN2CCOC(C(=O)Nc3ccc4[nH]nc(-c5ccncc5)c4c3)C2)cc1` (stereo not drawn) [Compound 34, 4-[[4-(METHYLTHIO)PHENYL]METHYL]-N-[3-(4-PYRIDINYL)-1H-INDAZOL-5-YL]-2-MORPHOLINECARBOXAMIDE], the Kd on ERK protein was 423 nM. Further, the concentration for half-maximal inhibition (IC50) in assay [1] was 508 nM; in assay [2] it was 957 nM.

As for `CC(C)Oc1ccc(-c2n[nH]c3ccc(NC(=O)C4CN(Cc5ccccc5)CCO4)cc23)cn1` (stereo not drawn) [Compound 1, N-[3-[6-(1-METHYLETHOXY)-3-PYRIDINYL]-1H-INDAZOL-5-YL]-4-(PHENYLMETHYL)-2-MORPHOLINECARBOXAMIDE], the Kd on ERK protein was 240 nM. Further, the results for the IC50 in assay [1] and in assay [2] were 532 nM and 1000 nM, respectively.

In the case of `O=C(Nc1ccc2[nH]nc(-c3ccncc3)c2c1)C1CNCCO1` (stereo not drawn) [Compound 16, N-[3-(4-PYRIDINYL)-1H-INDAZOL-5-YL]-2-MORPHOLINECARBOXAMIDE], the equilibrium dissociation constant (Kd) at ERK protein was 13500 nM. In addition, the values for the IC50 in assay [1] and in assay [2] were 2140 nM and 852 nM, respectively.
